In patent US20170107179A1 (Tetraphase Pharmaceuticals, Inc., priority 2010, published 2017):

Legend:
[1] = test system: Gram-negative and Gram-positive organisms (clinical isolates); test: Broth microdilution MIC against clinical isolates (CLSI M7-A8), Table 9; assay type: cell-based
[2] = test system: M. catarrhalis (n = 50); test: Broth microdilution MIC, respiratory pathogens (Table 13)
[3] = test system: Gram-positive pathogens; test: Broth microdilution MIC, respiratory/skin pathogens (Table 12)
[4] = Staphylococcus aureus (MRSA PVL+), n=30
[5] = Stenotrophomonas maltophilia, n=29

Q: How did the MIC50 ([1]; Acinetobacter lwoffii, n=29) turn out when Gentamicin was run?
A: ≦0.25 μg/ml

Q: What about the MIC90 ([1]; Acinetobacter lwoffii, n=29) of the same substance?
A: 1 µg/mL

Q: And the MIC50 ([1]; Enterobacter aerogenes, n=30)?
A: ≦0.25 μg/ml

Q: What about the MIC90 ([1]; Enterobacter aerogenes, n=30) of the same substance?
A: 0.5 µg/mL

Q: What about the MIC50 ([1]; Enterobacter cloacae, n=29) of the same substance?
A: 0.5 µg/mL

Q: What about the MIC90 ([1]; Enterobacter cloacae, n=29) of the same substance?
A: >8 µg/mL

Q: What about the MIC50 ([1]; Escherichia coli, n=40) of the same substance?
A: 2 µg/mL

Q: And the MIC90 ([1]; Escherichia coli, n=40)?
A: >8 µg/mL

Q: And the MIC50 ([1]; Kiebsielia oxytoca, n=30)?
A: 0.5 µg/mL

Q: What about the MIC90 ([1]; Kiebsielia oxytoca, n=30) of the same substance?
A: 2 µg/mL

Q: What about the MIC50 ([1]; Klebsiella pneumonia, n=27) of the same substance?
A: >8 µg/mL

Q: What about the MIC90 ([1]; Klebsiella pneumonia, n=27) of the same substance?
A: >8 µg/mL

Q: And the MIC50 ([1]; Morganella morganii, n=30)?
A: 1 µg/mL

Q: And the MIC90 ([1]; Morganella morganii, n=30)?
A: >8 µg/mL

Q: What about the MIC50 ([1]; Proteus vulgaris, n=29) of the same substance?
A: 1 µg/mL

Q: What about the MIC90 ([1]; Proteus vulgaris, n=29) of the same substance?
A: >8 µg/mL

Q: What about the MIC50 ([1]; Salmonella species, n=30) of the same substance?
A: 0.5 µg/mL

Q: What about the MIC90 ([1]; Salmonella species, n=30) of the same substance?
A: 1 µg/mL

Q: What about the MIC50 ([1]; Serratia marcescens, n=30) of the same substance?
A: 0.5 µg/mL

Q: And the MIC90 ([1]; Serratia marcescens, n=30)?
A: 1 µg/mL

Q: What about the MIC50 ([1]; Shigella species, n=30) of the same substance?
A: 1 µg/mL

Q: And the MIC90 ([1]; Shigella species, n=30)?
A: 1 µg/mL

Q: And the MIC50 [1, 4]?
A: 0.25 µg/mL

Q: What about the MIC90 [1, 4] of the same substance?
A: 0.5 µg/mL

Q: And the MIC50 [1, 5]?
A: >8 µg/mL

Q: What about the MIC90 [1, 5] of the same substance?
A: >8 µg/mL

Q: What about the MIC50 [2] of the same substance?
A: 0.12 µg/mL

Q: What about the MIC90 [2] of the same substance?
A: 0.12 µg/mL

Q: And the MIC50 ([3]; CoNS, MRCoNS (n = 26))?
A: 0.25 µg/mL

Q: And the MIC90 ([3]; CoNS, MRCoNS (n = 26))?
A: > 8 µg/mL

Q: What about the MIC50 ([3]; CoNS, MSCoNS (n = 26)) of the same substance?
A: 0.12 µg/mL

Q: And the MIC90 ([3]; CoNS, MSCoNS (n = 26))?
A: 0.25 µg/mL

Q: And the MIC50 ([3]; E. faecalis, VAN NS (n = 48))?
A: > 8 µg/mL

Q: What about the MIC90 ([3]; E. faecalis, VAN NS (n = 48)) of the same substance?
A: > 8 µg/mL

Q: And the MIC50 ([3]; E. faecalis, VAN S (n = 53))?
A: > 8 µg/mL

Q: And the MIC90 ([3]; E. faecalis, VAN S (n = 53))?
A: > 8 µg/mL

Q: And the MIC50 ([3]; E. faecium, VAN NS (n = 51))?
A: 8 µg/mL

Q: And the MIC90 ([3]; E. faecium, VAN NS (n = 51))?
A: > 8 µg/mL

Q: What about the MIC50 ([3]; E. faecium, VAN S (n = 49)) of the same substance?
A: 8 µg/mL

Q: What about the MIC90 ([3]; E. faecium, VAN S (n = 49)) of the same substance?
A: > 8 µg/mL

Q: What about the MIC50 ([3]; S. aureus, MSSA (n = 50)) of the same substance?
A: 0.25 µg/mL

Q: What about the MIC90 ([3]; S. aureus, MSSA (n = 50)) of the same substance?
A: 0.5 µg/mL

Q: What about the MIC50 ([3]; S. saprophyticus (n = 36)) of the same substance?
A: ≦0.06 mg/mL

Q: And the MIC90 ([3]; S. saprophyticus (n = 36))?
A: ≦0.06 mg/mL
